Data reported in US4426378A, “Thyrotropin releasing hormone in therapy of shock and as a central nervous system stimulant” (The United States of America as represented by the …, priority 1981, dated 1984).

Key:
[1] = tested on: rats subjected to hemorrhagic shock; assay: Hemorrhagic shock, Experiment No. 3; type: in vivo; conditions: TRH 2 mg/kg i.v.
Procedure: Another group of rats was subjected to hemorrhagic shock according to our previous experimental design. In a total of 27 rats, blood was withdrawn from the indwelling external jugular vein cannula; MAP fell from 96.5±1.6 mm Hg to 37.2±1.0 mm Hg where it was maintained for 20 minutes. A total of […] (body weight) of blood was removed, a volume approximating 45% of estimated total blood volume. Following the 20 minutes of controlled oligemia, animals were treated with either i.v. TRH (2 mg/kg, m=15) or an equal volume of i.v. saline (1.0 ml/kg, n=12) followed by a 0.2 ml cannula flush. Shed blood was not returned. […] The duration of this effect was about 30 minutes, approximately equivalent to the duration of the pressor response to TRH in normotensive rats not subjected to shock, FIG. 3a. In this model, saline-treated rats also experienced an increase in MAP, a consequence of the fluid volume infused.

[2] = tested on: rats subjected to endotoxic shock; assay: Endotoxic shock (E. coli lipopolysaccharide endotoxin i.v.), Experiment No. 1; type: in vivo, male Sprague-Dawley rats; conditions: TRH 2 mg/kg i.v.
Text: (§1) Tail-artery and external-jugular vein cannulae were implanted in male Sprague-Dawley rats (250-300 g; Zivic-Miller Labs) according to standard surgical techniques. Twenty-four hours later, the arterial cannula were connected to a microtransducer (Narco Biosystems, RP 1500 attached to a Beckman physiograph, type R). This arrangement permitted continuous measurement of blood pressure and heart rate in awake, freely moving rats in their home cages.
A second group of rats was subjected to endotoxic vasogenic, septic) shock by the i.v. administration of Escherichia coli lipopolysaccharide endotoxin (15 mg/kg; Difco, control #654109). In these animals, MAP fell to 67-70 mm Hg, which was approximately 26% (24 mm Hg) below baseline levels of 92.7±1.9 mm Hg (n=22). These rats, randomly divided into two groups, were treated with either i.v. TRH (2 mg/kg, n=13) or an equal volume of i.v. saline (1.0 ml/kg, n=11), followed by a 0.2 ml cannula flush.

[3] = tested on: control rats not subjected to shock; assay: Cardiovascular effects of i.v. TRH in control rats not subjected to shock; type: in vivo, male Sprague-Dawley rats; conditions: TRH 2 mg/kg i.v.
Text: as §1
In control rats which were not subjected to shock, the cardiovascular effects of intravenous (i.v.) TRH alone were determined. A dose of 2 mg/kg body weight TRH (Beckman Labs) was injected, followed by a cannula flush (0.2 ml saline) to ensure complete drug delivery. Cardiovascular parameters were monitored for two hours. TRH administration caused a significant increase in mean arterial pressure (MAP) of 11.1±1.5 mm Hg (n-10, Student's t=7.25, p 0.001), with peak effects observed at 5-minute post-injection and persisting for 30 minutes (FIG. 1).

rats [4] = assay: Behavioral effects of intravenous TRH (CNS stimulant); type: in vivo
Procedure: (§2) Follow-up studies were performed to evaluate other physiological parameters, TRH dose-response characteristics, and the effect of TRH on endotoxic shock survival in the rat. The experiments were conducted identically as described above in Experiment No. 1 for initial endotoxic shock studies, except heart rate, pulse pressure, respiration rate, and behavioral measures were examined following treatment with intravenous saline or TRH (0.2, 0.63, 2.0, 6.34, or 20.0 mg per kilogram body weight). Survival at 2 hours post drug treatment was also assessed. […] Pressure fell from 98.0±1.3(SE) millimeters of mercury (mm Hg) to 70.7±1.6 (SE) mm Hg, student's t=13.3, p 0.001.
In addition to its effects upon physiological parameters, intravenous TRH also produced a variety of behavioral effects indicative of its action as a CNS stimulant.

rats [5] = assay: Escape from enclosure with heated floor (53° C.); type: in vivo
Procedure: (§3) To confirm the lack of effect of TRH upon analgesic responses, an additional group of rats was equipped with intravenous cannulae only. One day later, rats were divided into 3 groups (n=6/group). Group one received TRH alone (2.0 mg/kg--a dose with therapeutic effects in shock), group two received morphine sulfate (4 mg per kg) followed by TRH (2.0 mg per kg), and group three got morphine sulfate alone (4.0 mg per kg). Pain latencies were determined by applying a thermal stimulus to the tail, tail-flick procedure, FIG. 4a, and by measuring how long required for a rat to escape from an enclosure with a heated floor (53° C.), FIG. 4b.

rats [6] = assay: Tail-flick procedure (thermal stimulus to the tail); type: in vivo; conditions: n=6
Procedure: as §3

[7] = tested on: rats subjected to endotoxic shock; assay: Endotoxic shock follow-up: dose-response, cardiorespiratory variables and survival, Experiment No. 2; type: in vivo, rat; conditions: for pulse pressure / change in mean arterial pressure / respiratory rate / heart rate: 15 min following treatment; for survival, alive/dead: 2 hrs following treatment (saline 4/4)
Procedure: as §2
When saline-control rat mortality was compared to mortality in all TRH-treated animals over the 2 hour measurement interval, there was a significant decrease in the lethal effects of endotoxemia produced by a single injection of this substance (Fisher exact probability, p=0.01).

## NC(=O)[C@@H]1CCCN1C(=O)[C@H](Cc1c[nH]cn1)NC(=O)[C@@H]1CCC(=O)N1 [TRH, L-pyroglutamyl-L-histidyl-L-proline amide]
[1]
  duration of MAP effect: about 30 minutes
[1]; n=15, first 15 minutes following injection
  MAP higher than saline-control rats: 20-25 mm Hg
[1]; Student's t=2.11, p<0.05
  MAP area scores vs saline: significantly greater
[2]; n=13, average during first 30 minutes post-treatment, endotoxin 15 mg/kg
  increase in MAP: 20-25 mm Hg
[2]; triangulation of response-time data, Student's t=5.66, p<0.001
  MAP area scores vs saline: significant differences between the two treatment groups
[3]; control rats
  persistence of MAP increase: 30 min
  time of peak effect on MAP post-injection: 5 min
[3]; normotensive control rats, n=10
  increase in mean arterial pressure (MAP): 11.1±1.5 mm Hg
Rats [4]; intravenous TRH
  lowest dose at which wet-dog shaking behavior was observed: 0.63 mg per kg
Rats [4]; intravenous TRH 6.34 or 20.0 mg per kg body weight
  tail-rattling, oral "chewing" stereotypies, and piloerection: frequently observed
Rats [5]; TRH alone 2.0 mg/kg i.v., n=6, 53° C.
  pain latency, escape from heated floor: no effect
Rats [5]; morphine sulfate 4 mg per kg followed by TRH 2.0 mg per kg, n=6
  effect on morphine-induced analgesia, escape from heated floor: did not alter the intensity or duration of morphine-induced analgesia
Rats [6]; TRH alone 2.0 mg/kg i.v.
  pain latency, tail-flick: no effect
Rats [6]; morphine sulfate 4 mg per kg followed by TRH 2.0 mg per kg
  effect on morphine-induced analgesia, tail-flick: did not alter the intensity or duration of morphine-induced analgesia
[7]; 15 minutes following treatment, n=34, r=0.43, p<0.02
  TRH dose vs improvement in MAP: significant dose-response correlation
[7]; TRH 0.20 mg/Kg IV, n=8, spread ±2.9
  pulse pressure: 24.4 mm Hg
[7]; TRH 0.20 mg/Kg IV, n=8, spread ±5.1
  change in mean arterial pressure: 21.4 mm Hg
[7]; TRH 0.20 mg/Kg IV, n=8, spread ±6.8
  respiratory rate: 107.0 breaths/min.
[7]; TRH 0.20 mg/Kg IV, n=8, spread ±16.8
  heart rate: 465.0 beats/min
[7]; TRH 0.20 mg/Kg
  survival, alive/dead: 7/1
[7]; TRH 0.63 mg/Kg IV, n=8, spread ±4.0
  respiratory rate: 109.0 breaths/min.
[7]; TRH 0.63 mg/Kg IV, n=8, spread ±5.2
  change in mean arterial pressure: 20.9 mm Hg
[7]; TRH 0.63 mg/Kg IV, n=8, spread ±5.7
  pulse pressure: 36.2 mm Hg
[7]; TRH 0.63 mg/Kg IV, n=8, spread ±22.4
  heart rate: 470.0 beats/min
[7]; TRH 0.63 mg/Kg
  survival, alive/dead: 8/0
[7]; TRH 2.00 mg/Kg IV, n=8, spread ±3.9
  pulse pressure: 33.1 mm Hg
[7]; TRH 2.00 mg/Kg IV, n=8, spread ±5.1
  change in mean arterial pressure: 24.2 mm Hg
[7]; TRH 2.00 mg/Kg IV, n=8, spread ±6.9
  respiratory rate: 125.0 breaths/min.
[7]; TRH 2.00 mg/Kg IV, n=8, spread ±24.0
  heart rate: 517.5 beats/min
[7]; TRH 2.00 mg/Kg
  survival, alive/dead: 7/1
[7]; TRH 6.34 mg/Kg IV, n=8, spread ±3.7
  change in mean arterial pressure: 35.1 mm Hg
[7]; TRH 6.34 mg/Kg IV, n=8, spread ±4.1
  pulse pressure: 37.5 mm Hg
[7]; TRH 6.34 mg/Kg IV, n=8, spread ±4.3
  respiratory rate: 147.0 breaths/min.
[7]; TRH 6.34 mg/Kg IV, n=8, spread ±21.0
  heart rate: 530.0 beats/min
[7]; TRH 6.34 mg/Kg
  survival, alive/dead: 8/0
[7]; TRH i.v., endotoxic shock
  effect on pulse pressure and heart rate: increased pulse pressure and heart rate
  effect on respiration rate: increased in a dose-related manner
[7]; all TRH-treated vs saline-control, 2 hour interval, single injection, Fisher exact probability p=0.01
  survival following endotoxic shock: significantly improved
